How the values were obtained:
[1] = tested on: tunicamycin sensitive clone JMEC; assay: Apoptosis and recovery in the tunicamycin sensitive cell clone; assay type: cell-based, bovine
Description: To understand the precise molecular mechanism of tunicamycin induced apoptosis of capillary endothelial cells, a cell clone was isolated from the parental culture that was maintained in a serum-free media for six weeks following synchronization. The morphology of these cells and their growth profile appear quite different. For example, the shapes are more spindle-like, resembling Kaposi's Sarcoma lesions endothelial cells, as disclosed in FIORELLI et al., “Cytokines from Activated T Cells Induce Normal Endothelial Cells to Acquire the Phenotypic and Functional Features of AIDS-Kaposi's Sarcoma Spindle Cells”, J. Clin. Invest., 95:1723-1734 (1995), the disclosure of which is herein incorporated by reference in its entirety. The cells undergo two-population doubling in 2% (v/v) fetal bovine serum, differentiate in 5 days, and complete one cell cycle in approximately 56 hours (FIG. 4).
There was no recovery after exposing the cells to 1 μg/ml-10 μg/ml tunicamycin for 72 hours or more (not all data shown).

[2] = tested on: bovine adrenal medullary microvascular endothelial cells; assay: Recovery of endothelial cells after tunicamycin treatment (parental line); assay type: cell-based
Description: If the behavior of tunicamycin observed here is truly anti-angiogenic and is not due to cytotoxicity then cells must recover following a tunicamycin treatment that is shorter in duration, and the concentrations are moderate. […] On the other hand, the recovery was quantitative from a 24 hour exposure to tunicamycin at all concentrations (data not shown).

[3] = tested on: bovine adrenal medullary microvascular endothelial cells; assay: Cell cycle and apoptosis by flow cytometry (propidium iodide); assay type: cell-based
Description: Regarding flow cytometry, assessment of the cell cycle was determined by propidium iodide staining of fixed cell nuclei followed by flow cytometry in a FacSort (Beckton Dickinson) according to the method of Krishan (1975) as modified by Vindelov (1977), as discussed in KRISHAN, “Rapid Flow Cytofluorometric Analysis of Mammalian Cell Cycle by Propidium Iodide Staining”, J. Cell Biol., 66:188-193 (1975); and VINDELOV, “Flow Cytometric Analysis of Nuclear DNA in Cells from Solid Tumors and Cell Suspensions”, Virchows Arch (B), 24:227-231(1977), the disclosures of which are herein incorporated by reference in their entireties. Briefly, cells were trypsinized, and pelleted by centrifugation at 900 rpm in a bench top centrifuge (Sorvall T6000B). After washing twice with PBS the cell pellet was resuspended in propidium iodide-buffer (PI-buffer; 10 mM Tris-HCl, pH 8.0 containing 10 mM NaCl, 0.7 μM PI, 700 units/liter RNase, and 0.1% (v/v) NP-40), kept in ice for 30 minutes and then fixed with 2% (v/v) paraformaldehyde. After FacSort calibration, 3000 events were counted per sample. Acquisition and analysis of data were carried out by using Cell Quest flow cytometry software (Macintosh-based). Gates: M1=G0/G1, M2=S, M3=G2+M, M4=apoptosis.
Proliferation and Differentiation of Capillary Endothelial Cells: 2.0×10^4 cells were seeded per well in 24-well clusters in 1 ml complete EMEM containing 10% (v/v) serum and allowed to grow for 72 hours. Media were removed and the cells were washed twice with phosphate-buffer saline, pH 7.4 (PBS). Cells were synchronized by incubating for 48 hours in 2 mM hydroxyurea in serum-free EMEM with glutamine (2 mM) and one-third of penicillin-streptomycin used in a regular culture condition, followed by incubating 24 hours in serum-free EMEM, as discussed in CAO et al., “Modified Method of Mammalian Cell Synchronization Improves Yield and Degree of Synchronization”, Exp. Cell Res., 193:405-410 (1991), the disclosure of which is herein incorporated by reference in its entirety. Cells were routinely monitored by light microscopy. For proliferation assay, cells were trypsinized and counted in a hemacytometer. Viability of cells was determined by trypan blue (0.4% (v/v)) exclusion. Statistical analysis was carried out by StatView II software (Macintosh). Quantitation of cellular differentiation was carried out by observing under a Nikon AlphaShot inverted microscope, and counting the number of capillary lumen-like structures in five randomly selected fields per sample. The results were expressed as percent of its corresponding control after normalization of cell numbers. Analysis of Cell Cycle by Flow Cytometry: Assessment of the cell cycle was determined by propidium iodide staining of fixed cell nuclei followed by flow cytometry in a FacSort (Beckton Dickinson) according to the method of Krishan (1975) as modified by Vindelov (1977), as discussed in KRISHAN, “Rapid Flow Cytometric Analysis of Mammalian Cell Cycle by Propidium Iodide Staining”, J. Cell Biol. 66:188-195 (1975); and VINDELOV, “Flow Cytometric Analysis of Nuclear DNA in Cells from Solid Tumors and Cell Suspensions”, Virchows Arch (B), 24:227-231 (1977), the disclosures of which are herein incorporated by reference in their entireties. Briefly, cells were trypsinized, and pelleted by centrifugation at 900 rpm in a bench top centrifuge (Sorvall T6000B). After washing twice with PBS the cell pellet was resuspended in propidium iodide-buffer (PI-buffer; 10 mM Tris-HCl, pH 8.0 containing 10 mM NaCl, 0.7 μM PI, 700 units/liter RNase, and 0.1% (v/v) NP-40), kept in ice for 30 minutes and then fixed with 2% (v/v) paraformaldehyde. After FacSort calibration, 3000 events were counted per sample. Acquisition and analysis of data were carried out by using Cell Quest flow cytometry software (Macintosh-based). Gates: M1 G0/G1, M2=S, M3=G2+M, M4=apoptosis.

protein N-glycosylation = details: control cells and isoproterenol-treated cells, BANERJEE et al. (1993); cited from earlier work
[4] = 1 μg/ml tunicamycin for 48 hours
[5] = 10 μg/ml tunicamycin for 48 hours

tunicamycin
concentration for apoptosis less than needed for parental cells ([1]; 10 ng/ml in clone versus parental cells): 100 fold | cells recovered in 5 days ([1]; 10 ng/ml tunicamycin for 24 hours): approximately 60% | apoptosis of the sensitive clone ([1]; 10 ng/ml tunicamycin, 32 hours): undergoes apoptosis | cells recovered in 5 days [1, 4]: recovered similarly | recovery of cells ([1]; 1 μg/ml-10 μg/ml tunicamycin for 72 hours or more): no recovery | cells recovered [1, 5]: less than 20% | recovery of cells in 5 days ([2]; 10 ng/ml tunicamycin for 48 hours): full recovery | recovery of cells [2, 4]: approximately 40% | recovery of cells [2, 5]: 12% | recovery of cells ([2]; 24 hour exposure to tunicamycin at all concentrations (data not shown)): quantitative | recovery of cells ([2]; tunicamycin for 72 hours or longer at 1 μg/ml or 10 μg/ml): never recovered | completion of the cell cycle ([3]; 1 μg/ml tunicamycin): never completed the cell cycle | cell population entered into apoptosis ([3]; 1 μg/ml tunicamycin, 32 hours exposure, synchronized cells, EMEM 2% (v/v) FBS): ~70% | apoptosis by flow cytometric analysis (in words) ([3]; in the presence of tunicamycin): underwent apoptosis | glycosylation (protein N-glycosylation): reduced glycosylation

Reference: patent US7361643B2, “Methods for inhibiting angiogenesis” (University of Puerto Rico, priority 2000, dated 2008)
